#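 Briefly, cells in 96-well plates were exposed to five compound concentrations for 48 h, and endpoints were estimated by linear interpolation. GI50 = concentration required for 50% inhibition of growth. TGI denotes the concentration required for complete inhibition of growth.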
# What was measured:
# Assay in all cases: DTP human tumour cell line panel, 48 h
# SK-MEL-28 melanoma = test system: SK-MEL-28 melanoma
# SK-MEL-2 melanoma = test system: SK-MEL-2 melanoma
# U251 CNS = test system: U251 CNS
# NCI-H522 lung = test system: NCI-H522 lung
# UACC-257 melanoma = test system: UACC-257 melanoma
# UACC-62 melanoma = test system: UACC-62 melanoma
# SF-268 CNS = test system: SF-268 CNS
# NCI-H460 lung = test system: NCI-H460 lung
# SN12C renal = test system: SN12C renal
# MDA-MB-435 = test system: MDA-MB-435
SMILES,GI50 (SK-MEL-28 melanoma) [µM],TGI (SK-MEL-28 melanoma) [µM],GI50 (SK-MEL-2 melanoma) [µM],TGI (SK-MEL-2 melanoma) [µM],GI50 (U251 CNS) [µM],TGI (U251 CNS) [µM],GI50 (NCI-H522 lung) [µM],TGI (NCI-H522 lung) [µM],GI50 (UACC-257 melanoma) [µM],TGI (UACC-257 melanoma) [µM],GI50 (UACC-62 melanoma) [µM],TGI (UACC-62 melanoma) [µM],GI50 (SF-268 CNS) [µM],TGI (SF-268 CNS) [µM],GI50 (NCI-H460 lung) [µM],TGI (NCI-H460 lung) [µM],GI50 (SN12C renal) [µM],TGI (SN12C renal) [µM],GI50 (MDA-MB-435) [µM],TGI (MDA-MB-435) [µM]
Cc1ccc(Cl)cc1Nc1nc(C(F)(F)F)ccc1C(=O)Oc1ccc(Cl)cc1,21.9,> 100,17.7,> 100,4.15,16.1,22.3,> 100,39.3,> 100,15.8,38.6,14,38.7,16.4,54.2,14.5,43.8,16.8,51.9
Cc1ccccc1NC(=O)NC(CC(N)=O)c1ccc2c(c1)nc(-c1cccc(Oc3ccc(C(C)(C)C)cc3)c1)n2CCCN1CCCCC1C (stereo unspecified),1.89,3.51,11.1,23.3,1.75,3.23,1.88,3.57,1.86,3.49,1.71,3.22,1.88,3.88,2,3.87,4.49,11.1,1.72,3.3
O=Cc1ccc(C(F)(F)F)cc1.[C-]#[O+].[C-]#[O+].[C-]#[O+].[Cr],63,> 100,23.7,> 100,26.8,> 100,23.7,> 100,58.2,> 100,13.3,37,21,> 100,13.3,40.3,22.6,82.1,14.3,45.7
Cn1c2ccccc2c2c3c(c4c5ccccc5n(CCCCCC#N)c4c21)C(=O)N(O)C3=O,1.72,9.91,1.54,3.84,0.33,1.51,0.268,1.42,1.65,5.22,0.465,2.03,0.624,> 100,0.377,2.34,0.453,20.9,0.788,9.59
CC(C)[C@]12O[C@H]1[C@@H]1O[C@]13[C@]1(O[C@H]1C[C@H]1c4c(C(=O)c5ccccc5)oc(OC(=O)c5ccccc5)c4CC[C@@]13C)[C@@H]2O,0.0184,0.0612,0.0252,0.0781,0.0863,> 100,0.0169,0.0913,0.0168,0.0628,0.0134,0.0333,0.0338,1.6,–,11.4,0.0249,52.2,0.0151,0.0366
C[n+]1c2ccccc2c(NC2CCNCC2)c2[nH]c3ccccc3c21,1.03,2.95,0.207,1.22,0.198,1.91,0.124,0.699,5.41,23.7,0.215,1.08,0.0378,0.773,0.223,1.53,0.0324,0.314,2.33,8.42
CC1SC(c2cccs2)N(NC(=O)C(O)c2ccccc2)C1=O (stereo unspecified),> 100,> 100,> 100,> 100,> 100,> 100,> 100,> 100,> 100,> 100,> 100,> 100,> 100,> 100,> 100,> 100,> 100,> 100,> 100,> 100
NCCOc1ccccn1,–,> 100,–,> 100,–,> 100,–,> 100,–,> 100,–,> 100,–,> 100,–,> 100,–,> 100,–,> 100
COc1ccc(-n2c(N)c(C(=O)NCCN3CCOCC3)c3nc4ccccc4nc32)cc1OC,32.1,> 100,2.94,42.8,8.68,> 100,8.07,> 100,34.4,> 100,9.82,> 100,5.39,> 100,3.28,> 100,5.29,> 100,12.8,> 100
COC(=O)c1c(-c2ccccc2)csc1NC(=O)c1c(-c2ccccc2)noc1C,1.56,> 100,–,> 100,0.321,> 100,1.56,> 26.3,> 82.9,> 100,0.78,> 100,0.89,> 100,0.177,> 100,4.06,> 100,1.2,> 100
CCCCOC(=O)N[C@H]1CCc2cc(OC)c(OC)c(OC)c2-c2ccc(SC)c(=O)cc21,–,16.2,–,2.02,–,3.87,–,< 0.01,–,31.4,–,24.8,–,25.1,–,0.115,–,34.2,–,< 0.01
O=C1c2cccc3cccc(c23)C(=O)N1CCCCOc1ccc(-c2nc3ccc(N4CCOCC4)cc3[nH]2)cc1,1.42,2.86,15.7,53.6,1.53,4.56,15.1,41.2,5.06,27.9,1.72,3.2,7.35,> 69.6,3.42,16.1,5.56,12.1,2.04,4.54
CO/N=C1/c2cc(OC)ccc2-c2c(NOC)nc3ccccc3c21,85.2,> 100,24.7,88.5,13,25.7,26.6,> 100,28.2,> 100,27.5,> 100,41.6,> 100,29.5,> 100,29.5,> 100,> 100,> 100
CCOc1ccc2c(c1)/C(=C\C=C\C1CC(C)C3CC(OCC)CCC3N1CC)CC(C)N2CC (stereo unspecified),1.36,2.86,1.66,3.35,0.38,1.51,0.852,3.08,0.795,2.15,1.26,2.77,0.882,2.41,0.416,1.64,0.471,1.81,0.905,2.31
O=C1NC(=NCCc2ccccc2Cl)S/C1=C\c1ccc2ncccc2c1,10.7,> 25,5.86,14,2.64,> 21.4,4.13,12.3,11.2,> 25,6.49,> 25,4.68,> 25,6.34,> 25,7.72,> 25,1.45,9.81
CCCCCCCCSC1=CC(=O)C(OC)=C(OC)C1=O,6.7,20.3,4.3,13.7,2.8,11.7,0.326,1.49,1.67,4.17,3.5,13.9,3.75,14.7,6.29,19.8,5.21,18.4,1.88,7.57
CCN1C(=O)N(c2c(F)c(OC)cc(OC)c2F)Cc2cnc3[nH]c(CN4CCOCC4)cc3c21,8.06,> 100,1.08,41.8,2.75,> 100,3.12,> 100,4.69,> 100,3.77,51.5,2.19,> 100,1.86,> 100,2.78,28.2,4.65,> 100
CC(C)(C)c1ccc(-c2nnc(SCc3ccc(Cl)cc3)n2-c2cccc(C(F)(F)F)c2)cc1,–,> 100,–,> 69.5,–,> 100,–,> 100,–,> 72.6,–,> 100,–,> 100,–,> 100,–,14,–,> 100
CC(O)CN(CCN(CC(C)O)CC(C)O)CC(C)O.O=[N+]([O-])O.[Cu+2] (stereo unspecified),> 100,> 100,> 100,> 100,> 100,> 100,> 100,> 100,> 100,> 100,> 100,> 100,> 100,> 100,99.2,> 100,> 100,> 100,> 100,> 100
Nc1nc(Cl)nc2c1ncn2C1O[C@H](CO)[C@@H](O)[C@@H]1F (stereo partly specified),> 100,> 100,> 100,> 100,0.442,> 100,–,> 100,–,> 100,0.362,> 100,0.229,> 54,0.37,> 100,0.0668,> 100,0.485,> 100
Cn1cccc1-c1cc(-c2ccc(Br)cc2)nc(N)c1C#N,> 100,> 100,> 100,> 100,> 100,> 100,66,> 100,> 100,> 100,33.3,> 100,> 100,> 100,> 100,> 100,> 100,> 100,> 100,> 100
O=Nc1c(-c2cccc([N+](=O)[O-])c2)nc2ncccn12,15.2,30.2,14.7,38.1,13.9,32.5,10.6,25.1,12.3,26.4,14.4,29.3,18.3,66.8,17.8,54.8,16.4,42.3,13.7,36.4
O=C1c2cccnc2-c2nc(-c3ccc([N+](=O)[O-])cc3)cc3c2c1nc1ccccc13,12.7,27.8,3.3,26.5,3.44,> 100,2,6.95,2.21,7.32,5.43,15.6,3.08,19.8,2.34,8.62,11.3,25.7,1.69,3.06

# Source: PubChem BioAssay (NCI)
